EC50 data for 19 compounds are collected here from US20250268903A1, “RXFP1 AGONISTS” (BRISTOL-MYERS SQUIBB COMPANY, priority 2021, published 2025).

The target of this experiment is T1, human RXFP1 (Homo sapiens, UniProt Q9HBX9).
T1 construct: expressed in transfected cells
T1 sequence (Q9HBX9 1-757): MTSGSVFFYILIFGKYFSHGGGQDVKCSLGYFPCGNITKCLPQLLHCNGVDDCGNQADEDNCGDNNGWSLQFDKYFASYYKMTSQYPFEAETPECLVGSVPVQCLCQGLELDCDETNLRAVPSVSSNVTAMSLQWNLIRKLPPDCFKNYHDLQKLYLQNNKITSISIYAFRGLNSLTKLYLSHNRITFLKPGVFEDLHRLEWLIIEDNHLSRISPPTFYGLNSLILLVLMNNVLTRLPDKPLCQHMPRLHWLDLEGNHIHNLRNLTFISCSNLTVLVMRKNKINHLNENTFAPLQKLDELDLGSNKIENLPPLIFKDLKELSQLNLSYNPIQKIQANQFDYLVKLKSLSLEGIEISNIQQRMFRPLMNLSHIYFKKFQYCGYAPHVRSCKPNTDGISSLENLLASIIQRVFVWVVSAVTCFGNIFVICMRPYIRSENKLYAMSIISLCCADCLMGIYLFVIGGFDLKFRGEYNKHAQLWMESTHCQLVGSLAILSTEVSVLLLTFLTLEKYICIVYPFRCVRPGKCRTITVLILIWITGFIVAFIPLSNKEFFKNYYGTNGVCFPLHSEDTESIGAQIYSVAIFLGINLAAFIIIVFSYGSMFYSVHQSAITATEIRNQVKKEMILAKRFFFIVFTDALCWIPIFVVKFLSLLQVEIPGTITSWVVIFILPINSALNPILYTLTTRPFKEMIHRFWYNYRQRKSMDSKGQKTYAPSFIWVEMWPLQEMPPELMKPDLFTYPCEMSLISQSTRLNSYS
Briefly: hRXFP1 HEK293 cAMP assay (HTRF). It is filed as cell-based. Particulars: HEK293 cells stably expressing human RXFP1, 30 min at room temperature. The protocol: RXFP1 Cyclic Adenosine Monophosphate (cAMP) Assays. […] Cells were dissociated and suspended in assay buffer. The assay buffer was HBSS buffer (with calcium and magnesium) containing 20 mM HEPES, 0.05% BSA, and 0.5 mM IBMX. Cells (3000 cells per well, except 1500 cell per well for HEK293 cells stably expressing human RXFP1) were added to 384-well Proxiplates (Perkin-Elmer). Cells were immediately treated with test compounds in DMSO (2% final) at final concentrations in the range of 0.010 nM to 50 μM. Cells were incubated for 30 min at room temperature. The level of intracellular cAMP was determined using the HTRF HiRange cAMP assay reagent kit (Cisbio) according to manufacturer's instructions. Solutions of cryptate conjugated anti-cAMP and d2 fluorophore-labelled cAMP were made in a supplied lysis buffer separately. Upon completion of the reaction, the cells were lysed with equal volume of the d2-cAMP solution and anti-cAMP solution. […] The potency and activity of a compound to […] cAMP production was then determined by fitting to a 4-parametric logistic equation from a plot of cAMP level versus compound concentrations.

Structures are written as SMILES.

As usually defined, the EC50 is the concentration that produces a half-maximal response. Lower therefore signals a more potent agent. Compound `COc1ccc(C#CCCCO)cc1C(=O)N[C@@H]1C2CCC(/C2=C/C(F)(F)F)[C@@H]1C(=O)Nc1ccc(F)c(C(F)(F)F)c1` (stereo partly drawn) [Example 77, (2S,3R,7Z)-N-[4-fluoro-3-(trifluoromethyl)phe-nyl]-3-[5-(5-hydroxypent-1-yn-1-yl)-2-methoxybenzamido]-7-(2,2,2-trifluoroethylidene)bi-cyclo[2.2.1]heptane-2-carboxamide] displayed an EC50 of 62 nM.

In turn, `COC(=O)C1CC(c2ccc(OC)c(C(=O)N[C@H]3[C@@H](C(=O)Nc4ccc(F)c(C(F)(F)F)c4)[C@H]4CC[C@@H]3/C4=C\C3CC3)c2)C1` (single isomer, unassigned) [Example 328] registered a 50% effective concentration (EC50) of 21.3 nM.

`COc1ccc(C[C@H]2C[C@H](O)C2)cc1C(=O)N[C@H]1[C@@H](C(=O)Nc2ccc(F)c(C(F)(F)F)c2)[C@H]2CC[C@@H]1/C2=C\C(F)(F)F` [Example 278, (1R,2S,3R,4R,7Z)-N-[4-fluoro-3-(trifluoromethyl)phenyl]-3-(2-methoxy-5-{[(1r,3s)-3-hydroxycyclobutyl]methyl}benzamido)-7-(2,2,2-trifluoroethylidene) bicyclo[2.2.1]heptane-2-carboxamide] displayed a concentration giving a half-maximal response (EC50) of 32 nM.

`COc1ccc(C(=O)NCCS(C)(=O)=O)cc1C(=O)N[C@H]1[C@@H](C(=O)Nc2ccc(F)c(C(F)(F)F)c2)[C@H]2CC[C@@H]1/C2=C\C1CC1` [Example 253, N3-[(1R,2R, 3S,4R,7Z)-7-(cyclopropylmethyl-idene)-3-{[4-fluoro-3-(trifluoromethyl)phenyl]carbamoyl}bicyclo[2.2.1]heptan-2-yl]-N1-(2-methanesulfonylethyl)-4-methoxybenzene-1,3-dicarboxamide] came in with a 50% effective concentration (EC50) of 11.9 nM.

The compound `CNc1ccc(CCCO)cc1C(=O)N[C@H]1[C@@H](C(=O)Nc2ccc(F)c(C(F)(F)F)c2)[C@H]2CC[C@@H]1/C2=C\C(F)(F)F` [Example 11, (1R,2S,3R,4R,Z)—N-(4-fluoro-3-(trifluoromethyl)phenyl)-3-(5-(3-hydroxypropyl)-2-(methylamino)benzamido)-7-(2,2,2-trifluoroethylidene) bicyclo[2.2.1]heptane-2-carboxamide] displayed an EC50 of 4710 nM.

`COc1ccc(COCC2COC2)cc1C(=O)N[C@H]1[C@@H](C(=O)Nc2ccc(F)c(C(F)(F)F)c2)[C@H]2CC[C@@H]1/C2=C\C(F)(F)F` [Example 284, (1R,2S,3R,4R,7Z)-N-[4-fluoro-3-(trifluoromethyl)phenyl]-3-(2-methoxy-5-{[(oxetan-3-yl)methoxy]methyl}benzamido)-7-(2,2,2-trifluoroethylidene) bicyclo[2.2.1] heptane-2-carboxamide] returned an EC50 of 161 nM.

In turn, `COC(=O)/C=C\c1ccc(OC)c(C(=O)N[C@H]2[C@@H](C(=O)Nc3ccc(F)c(C(F)(F)F)c3)[C@H]3CC[C@@H]2/C3=C\C(F)(F)F)c1` [Example 304, methyl (2Z)-3-(3-{[(1R,2R,3S,4R,7Z)-3-{[4-fluoro-3-(trifluoromethyl)phenyl]carbamoyl}-7-(2,2,2-trifluoroethylidene)bicyclo[2.2.1]heptan-2-yl]carbamoyl}-4-methoxyphenyl) prop-2-enoate] returned an EC50 of 597 nM.

On to `COc1ccc(CCc2ccc(F)cc2)cc1C(=O)NC1C2CCC(/C2=C/C(F)(F)F)[C@@H]1C(=O)Nc1ccc(F)c(C(F)(F)F)c1` (stereo partly shown) [Example 179, (7Z)-N-[4-fluoro-3-(trifluoromethyl)phe-nyl]-3-{5-[2-(4-fluorophenyl)ethyl]-2-methoxybenzamido}-7-(2,2,2-trifluoroethylidene)bi-cyclo[2.2.1]heptane-2-carboxamide], for which a half-maximal response (EC50) required 267 nM.

The compound `COc1ccc(CCC(N)=O)cc1C(=O)NC1C2CCC(/C2=C/C(F)(F)F)[C@@H]1C(=O)Nc1ccc(F)c(C(F)(F)F)c1` (stereo partly drawn) [Example 140, (2S,3R,7Z)-3-[5-(2-carbamoylethyl)-2-methoxybenzamido]-N-[4-fluoro-3-(trifluoromethyl)phe-nyl]-7-(2,2,2-trifluoroethylidene)bi-cyclo[2.2.1]heptane-2-carboxamide] registered an EC50 of 736 nM.

Consider `COc1ccc(S(=O)(=O)N2CCO[C@@H](CO)C2)cc1C(=O)NC1C2CCC(/C2=C/C2CC2)[C@@H]1C(=O)Nc1ccc(F)c(C(F)(F)F)c1` (stereo partly drawn) [Example 201, (2S,3R,7Z)-7-(cyclopropylmethyli-dene)-N-[4-fluoro-3-(trifluoromethyl)phe-nyl]-3-(5-{[(2R)-2-(hydroxymethyl)mor-pholin-4-yl]sulfonyl}-2-methoxybenzamido) bicyclo[2.2.1]heptane-2-carboxamide], for which the EC50 came to 14 nM.

As to `COc1ccc(C2CC3CC(CO)CC32)cc1C(=O)N[C@H]1[C@@H](C(=O)Nc2ccc(F)c(C(F)(F)F)c2)[C@H]2CC[C@@H]1/C2=C\C1CC1` (single isomer, unassigned) [Example 350], the EC50 is 17.7 nM.

Take `COc1ccc(CCCN)cc1C(=O)N[C@H]1[C@@H](C(=O)Nc2ccc(F)c(C(F)(F)F)c2)[C@H]2CC[C@@H]1/C2=C\C(F)(F)F` [Example 110, (1R,2S,3R,4R,Z)-3-(5-(3-aminopropyl)-2-methoxybenzamido)-N-(4-fluoro-3-(trifluoromethyl)phenyl)-7-(2,2,2-trifluoroethylidene) bicyclo[2.2.1]heptane-2-carboxamide]: the midpoint of the response, the EC50, lay at 2520 nM.

As to `COc1ccc(C#CCO)cc1C(=O)N[C@@H]1C2CCC(/C2=C/C(F)(F)F)[C@@H]1C(=O)Nc1ccc(F)c(C(F)(F)F)c1` (stereo partly shown) [Example 68], a half-maximal effect (EC50) was put at 144 nM.

On to `COc1ccc(S(=O)(=O)N2CCN(C(=O)OC(C)(C)C)[C@@H](CO)C2)cc1C(=O)N[C@H]1[C@@H](C(=O)Nc2ccc(F)c(C(F)(F)F)c2)[C@H]2CC[C@@H]1/C2=C\C(F)(F)F` [Example 226, tert-butyl (2R)-4-(3-{[(1R,2R,3S,4R,7Z)-3-{[4-fluoro-3-(trifluoromethyl)phenyl]carbamoyl}-7-(2,2,2-trifluoroethylidene)bicyclo[2.2.1]heptan-2-yl]carbamoyl}-4-methoxy-benzenesulfonyl)-2-(hydroxymethyl) piperazine-1-carboxylate], for which the EC50 amounted to 1730 nM.

In turn, `COc1ccc(CCCNC(=O)CO)cc1C(=O)N[C@@H]1C2CCC(/C2=C/C(F)(F)F)[C@@H]1C(=O)Nc1ccc(F)c(C(F)(F)F)c1` (stereo partly drawn) [Example 116, (2S,3R,7Z)-N-[4-fluoro-3-(trifluoromethyl)phe-nyl]-3-{5-[3-(2-hydroxyacetamido)pro-pyl]-2-methoxybenzamido}-7-(2,2,2-trifluoroethylidene)bi-cyclo[2.2.1]heptane-2-carboxamide] yielded an EC50 of 940 nM.

As to `COc1ccc(C2CC2C(=O)N2CCC(O)CC2)cc1C(=O)N[C@H]1[C@@H](C(=O)Nc2ccc(F)c(C(F)(F)F)c2)[C@H]2CC[C@@H]1/C2=C\C(F)(F)F` (single isomer, unassigned) [Example 323], it took 21.5 nM to reach a half-maximal effect (EC50).

For the compound `COc1ccc(S(=O)(=O)N2CCOCC2)cc1C(=O)NC1C2CCC(/C2=C/C(F)(F)F)[C@@H]1C(=O)Nc1ccc(F)c(C(F)(F)F)c1` (stereo partly drawn) [Example 199, (2S,3R,7Z)-N-[4-fluoro-3-(trifluoromethyl)phe-nyl]-3-[2-methoxy-5-(morpholine-4-sulfonyl)benzamido]-7-(2,2,2-triflurooethylidene)bi-cyclo[2.2.1]heptane-2-carboxamide], the EC50 was 719 nM.

With `COc1ccc(/C=C/C(=O)N[C@H]2C[C@@H](O)C2)cc1C(=O)N[C@@H]1C2CCC(/C2=C/C2CC2)[C@@H]1C(=O)Nc1ccc(F)c(C(F)(F)F)c1` (stereo partly drawn) [Example 128, (2S,3R,7Z)-7-(cyclopropylmethyli-dene)-N-[4-fluoro-3-(trifluoromethyl)phe-nyl]-3-{2-methoxy-5-[(1E)-2-{[(1s,3s)-3-hydroxycyclobutyl]carbamoyl}eth-1-en-1-yl]benzamido}bicyclo [2.2.1]heptane-2-carboxamide], the response was half-maximal at 96 nM (EC50).

In turn, `COc1ccc(CCCCC(F)(F)F)cc1C(=O)NC1C2CCC(/C2=C/C(F)(F)F)[C@@H]1C(=O)Nc1ccc(F)c(C(F)(F)F)c1` (stereo partly shown) [Example 186, (7Z)-N-[4-fluoro-3-(trifluoromethyl)phe-nyl]-3-[2-methoxy-5-(5,5,5-trifluoropentyl)benza-mido]-7-(2,2,2-trifluoroethylidene)bi-cyclo[2.2.1]heptane-2-carboxamide] had an EC50 of 280 nM.
